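Five concentrations, 48 hours, 96-well plates. GI50 = concentration required for 50% inhibition of growth.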 Active and inactive are the calls of the source. No stated cut-off is given here; in the data, active = GI50 up to about 1.1 µM and inactive = higher. Non-standard residues stand in square brackets, D forms with d. Residues, ends and D or L forms follow the SMILES beside them. ξ: configuration not given here. ξLac(3-iPr) = CC(C)CC(O)C(=O)O; NMeV = CN[CH](C(=O)O)C(C)C; NMeA = CN[CH](C)C(=O)O; βAla = NCCC(=O)O
Tests used:
Assay in all cases: NCI tumour cell line growth inhibition, 48 h
ACHN = tested on: ACHN
SK-MEL-28 = tested on: SK-MEL-28
RPMI-8226 = tested on: RPMI-8226
OVCAR-3 = tested on: OVCAR-3
NCI-H226 = tested on: NCI-H226
SN12C = tested on: SN12C
SNB-19 = tested on: SNB-19
HT-29 = tested on: HT-29
SK-MEL-5 = tested on: SK-MEL-5
SF-295 = tested on: SF-295
CAKI-1 = tested on: CAKI-1
SF-539 = tested on: SF-539
HCC 2998 = tested on: HCC 2998
Malme-3M = tested on: Malme-3M
NCI-H522 = tested on: NCI-H522
PC-3 = tested on: PC-3
NCI-H23 = tested on: NCI-H23
CCRF-CEM = tested on: CCRF-CEM
MDA-MB-435 = tested on: MDA-MB-435
MDA-MB-231 = tested on: MDA-MB-231

Structure (SMILES): CCC(C)C1NC(=O)C2CCCN2C(=O)C(CC(C)C)OC(=O)CCNC(=O)C(C)N(C)C(=O)C(C(C)C)N(C)C1=O (stereo not given) (cyclo([ξLac(3-iPr)]PI[NMeV][NMeA][βAla]); configuration not given here)
- GI50 (ACHN): 4.58 µM (inactive)
- GI50 (SK-MEL-28): 36.1 µM (inactive)
- GI50 (RPMI-8226): 1.29 µM (inactive)
- GI50 (OVCAR-3): 6.7 µM (inactive)
- GI50 (NCI-H226): > 21.5 µM (inactive)
- GI50 (SN12C): 6.84 µM (inactive)
- GI50 (SNB-19): 49 µM (inactive)
- GI50 (HT-29): 1.32 µM (inactive)
- GI50 (SK-MEL-5): 1.21 µM (inactive)
- GI50 (SF-295): 2.5 µM (inactive)
- GI50 (CAKI-1): 6.95 µM (inactive)
- GI50 (SF-539): 7.1 µM (inactive)
- GI50 (HCC 2998): 2.13 µM (inactive)
- GI50 (Malme-3M): 6.55 µM (inactive)
- GI50 (NCI-H522): 6.05 µM (inactive)
- GI50 (PC-3): 1.79 µM (inactive)
- GI50 (NCI-H23): 9.84 µM (inactive)
- GI50 (CCRF-CEM): 0.736 µM (active)
- GI50 (MDA-MB-435): 2.43 µM (inactive)
- GI50 (MDA-MB-231): 6.24 µM (inactive)
